Experimental data reported in US11214803B2, “Modulators of YAP1 expression” (Ionis Pharmaceuticals, Inc., priority 2019, dated 2022).
Strand notation (5' to 3'): a small letter for the sugar, then the base; units joined by * are phosphorothioate-linked, units joined directly phosphodiester-linked; [ ] holds rarer units or linkages, { } end groups; capitals alone tell only the bases. e = 2'-O-(2-methoxyethyl) (MOE); k = constrained ethyl (cEt); [5mC] = 5-methylcytosine; d = 2'-deoxy (DNA); m = 2'-O-methyl

Each substance was assayed on Yap1 mRNA (assay: Antisense inhibition of human Yap1 in SNU-449 cells by modified oligonucleotides, single dose (Example 5, RTS36584)). Settings: Table 39; SNU-449 cells, 10,000 cells per well, free uptake, 2,000 nM oligonucleotide, approx. 48 hours; RTS36584; normalized to RIBOGREEN; Yap1 mRNA relative to untreated control.
Assay type: cell-based
In short: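 Each modified oligonucleotide is applied by free uptake to SNU-449 cultures at 2,000 nM, and total RNA is harvested around 48 h later. Yap1 transcript, quantified with the RTS36584 set and corrected for RIBOGREEN RNA content, is given as % UTC. Asterisks mark sequences overlapping the amplicon.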

Substance | YAP1 (% UTC)
1198388 (kT*dA*dT*dA*dA*d[5mC]*dT*dG*dG*dG*d[5mC]*kA*eA*kA*eT*kT; antisense) [Compound 1198388] | 90
1198392 (kA*dA*d[5mC]*dA*d[5mC]*dT*dG*dA*dG*dG*dT*kA*eT*kA*eA*k[5mC]; antisense) [Compound 1198392] | 48
1198411 (kA*dG*dG*dA*dT*dG*d[5mC]*dA*dT*dG*dG*kT*eT*kT*eT*kT; antisense) [Compound 1198411] | 33
1198407 (kT*dG*d[5mC]*dT*dT*dT*dG*dG*dA*dA*dG*kA*eT*k[5mC]*eT*kG; antisense) [Compound 1198407] | 23
1198378 (kA*dT*dA*dT*dG*dG*dA*dA*dA*dT*dT*kG*eT*k[5mC]*eT*k[5mC]; antisense) [Compound 1198378] | 39

Same assay, conditions: Table 40 (separate experiment); SNU-449 cells, 10,000 cells per well, free uptake, 2,000 nM oligonucleotide, approx. 48 hours; RTS36584; normalized to RIBOGREEN; Yap1 mRNA relative to untreated control

Substance | YAP1 (% UTC)
1198715 (kA*eT*kT*dG*dT*d[5mC]*dT*d[5mC]*dA*dT*dG*d[5mC]*e[5mC]*eT*kT*kA; antisense) [Compound 1198715] | 33
1198746 (kG*e[5mC]*kA*d[5mC]*dT*dT*dT*dT*dA*d[5mC]*dA*dT*eT*eA*kG*kG; antisense) [Compound 1198746] | 7
1198721 (kA*eT*kG*dG*dA*dA*dA*dT*dT*dG*dT*d[5mC]*eT*e[5mC]*kA*kT; antisense) [Compound 1198721] | 48
1198785 (antisense kT*eT*kT*dA*dT*dG*dT*dA*dA*dT*dA*dT*eT*eG*k[5mC]*kA) [Compound 1198785] | 86

Same assay, conditions: Table 41; SNU-449 cells, 10,000 cells per well, free uptake, 2,000 nM modified oligonucleotide, approximately 48 hours; RTS36584; normalized to RIBOGREEN; Yap1 mRNA relative to untreated control cells

Substance | YAP1 (% UTC)
1198691 (antisense kG*kT*dA*dA*dT*dA*dT*dT*dG*d[5mC]*dA*dA*kT*e[5mC]*kT*eG) [Compound 1198691] | 38
1198631 (kA*kA*dA*dT*dT*dG*dT*d[5mC]*dT*d[5mC]*dA*dT*kG*e[5mC]*k[5mC]*eT; antisense) [Compound 1198631] | 53
1198630 (kA*kA*dT*dT*dG*dT*d[5mC]*dT*d[5mC]*dA*dT*dG*k[5mC]*e[5mC]*kT*eT; antisense) [Compound 1198630] | 37

Same assay, conditions: Table 43 experiment; SNU-449 cells, 10,000 cells per well, free uptake, 2,000 nM, approximately 48 hours; RTS36584; Yap1 mRNA normalized to RIBOGREEN, relative to untreated control cells

Substance | YAP1 (% UTC)
1198267 (kA*kG*dT*dG*dT*dA*dT*dG*dT*d[5mC]*dA*eG*eA*eA*kG*kA; antisense) [Compound 1198267] | 7
1198462 (antisense kT*kG*dG*dA*dA*dA*dT*dT*dG*dT*d[5mC]*eT*k[5mC]*eA*kT*eG) [Compound 1198462] | 27

Same assay, conditions: Table 44 experiment; SNU-449 cells, 10,000 cells per well, free uptake, 2,000 nM, approximately 48 hours; RTS36584; Yap1 mRNA normalized to RIBOGREEN, relative to untreated control cells

Substance | YAP1 (% UTC)
1198528 (kT*kA*dA*dA*dG*dT*dG*dT*dA*dT*dG*eT*k[5mC]*eA*kG*eA; antisense) [Compound 1198528] | 14
1198529 (kT*kT*dA*dA*dA*dG*dT*dG*dT*dA*dT*eG*kT*e[5mC]*kA*eG; antisense) [Compound 1198529] | 17
1198510 (k[5mC]*kT*d[5mC]*dT*dT*dA*dT*dA*dT*dG*dG*eT*kT*eT*kT*eG; antisense) [Compound 1198510] | 8

Same assay, conditions: Table 45; Yap1 mRNA as percent of untreated control, SNU-449 cells, single dose

Substance | YAP1 (% UTC)
1198913 (kT*kT*dA*d[5mC]*dA*dT*dT*dA*dG*dG*dA*kA*d[5mC]*kA*dA*kG; antisense) [Compound 1198913] | 86
1198923 (kT*kT*dG*dG*dA*dA*dG*dA*dT*d[5mC]*dT*kG*dA*kA*dA*k[5mC]; antisense) [Compound 1198923] | 73
1198952 (kT*kA*dA*dT*dA*dT*dT*dG*d[5mC]*dA*kA*kT*d[5mC]*kT*dG*kT; antisense) [Compound 1198952] | 77

Same assay, conditions: Table 46; Yap1 mRNA as percent of untreated control, SNU-449 cells, single dose

Substance | YAP1 (% UT)
1198843 (kA*kG*dT*dG*d[5mC]*dT*dT*dT*dG*dG*dA*kA*eG*kA*eT*k[5mC]; antisense) [Compound 1198843] | 45
1198868 (kT*kG*dT*dA*dA*dT*dA*dT*dT*dG*d[5mC]*kA*eA*kT*e[5mC]*kT; antisense) [Compound 1198868] | 49
1198821 (kT*k[5mC]*dT*dA*dT*dA*dT*dT*dA*dG*dA*kG*eT*kA*eT*kG; antisense) [Compound 1198821] | 62

Same assay, conditions: Table 48; Yap1 mRNA level relative to untreated control; modified oligonucleotides targeting SEQ ID NO.: 1 and 2

Substance | YAP1 (% UT)
1009395 (k[5mC]*kT*kG*dA*dG*dG*dT*dA*dT*dA*dA*d[5mC]*dT*kG*kG*kG; antisense) [Compound 1009395] | 43

Same assay, conditions: Table 49; Yap1 mRNA level relative to untreated control; modified oligonucleotides targeting SEQ ID NO.: 1 and 2

Substance | YAP1 (% UT)
1198334 (kA*kT*kA*dT*dG*dG*dT*dT*dT*dT*dG*dT*kG*eT*kG*eT; antisense) [Compound 1198334] | 57
1095565 (antisense kT*kG*kA*dG*dG*dT*dA*dT*dA*dA*d[5mC]*dT*kG*eG*kG*e[5mC]) [Compound 1095565] | 25
1198551 (antisense kA*kG*kT*dA*dT*dG*dT*dG*dG*d[5mC]*dA*dA*kT*kA*kA*eT) [Compound 1198551] | 34

Same assay, conditions: Table 50; Yap1 mRNA remaining as percent of untreated control (UT), SNU-449 cells, single dose

Substance | YAP1 (% UT)
1197247 (antisense kA*kA*kG*d[5mC]*mA*d[5mC]*dT*dT*dT*dT*dA*d[5mC]*dA*kT*kT*kA) [Compound 1197247] | 47
1198588 (antisense kA*kG*kA*dT*dT*dT*dA*dG*dG*dA*dT*dG*k[5mC]*kA*kT*eG) [Compound 1198588] | 32
1095435 (antisense kA*k[5mC]*kT*dG*dA*dG*dG*dT*dA*dT*dA*dA*k[5mC]*kT*kG*eG) [Compound 1095435] | 39
1197246 (antisense kA*kG*k[5mC]*dA*mC*dT*dT*dT*dT*dA*d[5mC]*dA*dT*kT*kA*kG) [Compound 1197246] | 33
1198563 (antisense kG*kA*kG*dG*dT*dA*dT*dA*dA*d[5mC]*dT*dG*kG*kG*k[5mC]*eA) [Compound 1198563] | 53

Same assay, conditions: Table 51; Yap1 mRNA remaining as percent of untreated control (UT), SNU-449 cells, single dose

Substance | YAP1 (% UT)
1197298 (kA*kT*kA*dG*mU*dG*d[5mC]*dT*dT*dT*dG*dG*dA*kA*kG*kA) [Compound 1197298] | 46
1197257 (antisense kT*k[5mC]*kA*dG*mA*dT*dT*dT*dA*dG*dG*dA*dT*kG*k[5mC]*kA) [Compound 1197257] | 20
1197314 (kA*kA*kA*dG*mU*dG*dT*dA*dT*dG*dT*d[5mC]*dA*kG*kA*kA; antisense) [Compound 1197314] | 22
1197261 (kT*k[5mC]*kT*dT*mA*dT*dA*dT*dG*dG*dT*dT*dT*kT*kG*kT) [Compound 1197261] | 91

Same assay, conditions: Table 52; Yap1 mRNA, modified oligonucleotides targeting SEQ ID NO: 1 and 2

Substance | YAP1 (% UT)
1200792 (kA*kT*kA*dT*dG*mG*dA*dA*dA*dT*dT*dG*dT*k[5mC]*kT*k[5mC]; antisense) [Compound 1200792] | 52
1200817 (kA*kG*k[5mC]*dA*d[5mC]*mU*dT*dT*dT*dA*d[5mC]*dA*dT*kT*kA*kG; antisense) [Compound 1200817] | 38
1200858 (kA*kA*kG*dT*dG*mU*dA*dT*dG*dT*d[5mC]*dA*dG*kA*kA*kG; antisense) [Compound 1200858] | 10
1200869 (k[5mC]*kT*kA*dA*dG*mU*dA*dA*dG*dG*dT*dT*dT*k[5mC]*k[5mC]*k[5mC]; antisense) [Compound 1200869] | 25

Same assay, conditions: Yap1 mRNA, percent of untreated control; modified oligonucleotides targeting SEQ ID NO: 1 and 2; Table 47

Substance | YAP1 (% UT)
1197176 (antisense kT*kG*kT*d[5mC]*dT*d[5mC]*dA*dT*dG*d[5mC]*d[5mC]*dT*dT*kA*kT*kA) [Compound 1197176] | 17
1198874 (kA*kA*dG*dT*dG*dT*dA*dT*dG*dT*d[5mC]*kA*eG*kA*eA*kG) [Compound 1198874] | 2
